Measured values from patent publication US20140037574A1, “PHARMACEUTICAL COMPOSITION” (priority 2010, published 2014).

Biological target: CYP3A4 (Homo sapiens, UniProt P08684)
Experiment: in vitro
Conditions: for inhibition at 10 min: human, microsomes, pH 7.4; for IC50: HLM, felodipine at its Km as substrate
Protocol: G6PDH (40 U/mL) was prepared in 5 mM sodium citrate solution and stored at −20° C. until use. […] The preparation of NRS was completed right before use. It was made such that on addition to the HLM incubation mixture, it contained 2.6 mM NADP', 6.7 mM G6P, […] and 0.8 U/ml G6PDH.
Substrate (felodipine) solutions were prepared over a range of 0.01-100.0 mM in acetonitrile. […] This was kept on ice until use.
The reaction was halted by a stop solution made of cooled acetonitrile (−20° C.).
Supernatants were filtered through […] and analysed by the UPLC method developed in order to quantify the extent of felodipine metabolism. The rate of metabolism, determined as the rate of disappearance of substrate, was profiled against the substrate concentration to determine the enzyme kinetic parameters.
Felodipine at its determined Km was incubated in HLM as described above except for the addition of inhibitors. […] Supernatants were analysed using the developed UPLC method. […] Another control was incubated without inhibitors to allow for maximum metabolism. […] At higher concentrations, the effect of acetonitrile on enzymatic activity could be significant. It is therefore recommended that not >1% acetonitrile should be included in the incubation mixture. […] The final concentration of acetonitrile in the incubation mixture was 1%.
Their inhibitory effects were investigated on microsomal metabolism of felodipine. The potencies of the inhibitors were measured as their IC50 values determined through non-linear regression of the percentage inhibition of felodipine metabolism against inhibitor concentration. […] The concentration of felodipine in incubation mixtures containing the various inhibitors and the modelled pre-systemic enzymatic modulators was determined and the extent of metabolism was measured as percentage of control.

Sequence of CYP3A4 (P08684 whole entry): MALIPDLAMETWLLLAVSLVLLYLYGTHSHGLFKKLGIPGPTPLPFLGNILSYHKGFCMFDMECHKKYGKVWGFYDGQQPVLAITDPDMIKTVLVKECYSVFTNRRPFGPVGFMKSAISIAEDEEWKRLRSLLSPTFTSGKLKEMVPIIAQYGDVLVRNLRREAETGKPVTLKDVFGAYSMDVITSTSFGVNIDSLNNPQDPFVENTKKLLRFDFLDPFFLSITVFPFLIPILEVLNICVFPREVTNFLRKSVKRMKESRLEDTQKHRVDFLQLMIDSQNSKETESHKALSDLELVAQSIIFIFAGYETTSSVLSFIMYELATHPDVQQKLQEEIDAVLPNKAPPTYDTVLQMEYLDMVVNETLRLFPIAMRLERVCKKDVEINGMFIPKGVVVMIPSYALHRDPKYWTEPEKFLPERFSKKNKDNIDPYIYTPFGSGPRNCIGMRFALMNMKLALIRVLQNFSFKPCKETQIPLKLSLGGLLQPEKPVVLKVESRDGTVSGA

inhibition at 10 min	IC50 (IC50 (mg/mL))	IC50 (IC50 (μM), Table 1)	Structure (SMILES)
95%			O=C1C[C@@H](c2ccc(O)cc2)Oc2cc(O)cc(O)c21 [Naringenin, naringenin]
98%	178 µM	178 µM	C[C@@H]1O[C@@H](O[C@H]2[C@H](Oc3cc(O)c4c(c3)O[C@H](c3ccc(O)cc3)CC4=O)O[C@H](CO)[C@@H](O)[C@@H]2O)[C@H](O)[C@H](O)[C@H]1O [Naringin, naringin]
98%			O=c1c(O)c(-c2ccc(O)c(O)c2)oc2cc(O)cc(O)c12 [Quercetin, quercetin]
